Data from US5041581A (priority 1986, dated 1991).

Assays:
L1210 cells = assay: In vitro growth inhibition of L1210 leukemic cells (96 hours, Coulter Counter); assay type: cell-based, murine; details: footnote of Table 5; 5760 min
Experimental: Four ml of cell suspension were added to culture tubes and the appropriate concentration of free PT or L-PT was added (from 0.01 micro g/ml to 10 micro g/ml final concentration). After 96 hours, the cell concentration of control and experimental cultures were calculated with a Coulter Counter (Coulter Electronics, Hialeah, FLA) and the percent inhibition calculated. The following preparations were tested: free PT, DMPG, DMPC:DMPG 7:3, DMPG-PT and DMPC:DMPG 7:3-PT.

L1210 mouse leukemia = assay: In vivo antitumor activity against L1210 mouse leukemia (L1210-BDF1 mouse model); design: species or system BDF1 mice
Experimental: BDF1 mice were purchased from Charles River (Wilmington, MA). Groups of 6-8 mice weighing 18-22 gm were inoculated ip with 1×10^6 L1210 leukemia cells on day 0. L1210 cells were kept in DBA2 mice were weekly passages between the different experiments. All L-PT preparations were injected ip in volumes of 0.1 to 0.3 ml 24 hours after tumor inoculation. Two different schedules of administration were used: a single injection on day 1 or an injection on days 1, 5 and 9 (multiple). […] Clinical behavior and survival times were monitored until all animals had died. Results were expressed as % T/C (median survival time of treated mice/median survival time of control mice ×100) and number of long-term survivors. Mice living more than 30 days and more than 60 days were considered to be long-term survivors for the single and multiple injection schedule respectively. All L-PT preparations tested for antitumor activity were prepared under sterile conditions on the same day of the experiment.
The antitumor activity against L-1210 murine leukemia of the different L-PT analogs was assessed in an L-1210-BDF, mouse model (tumor inoculation day 0, treatment day 1, ip) as described earlier herein.
These liposome-encapsulated compounds were tested to determine their optimal dose and effectiveness as inhibitors of in vivo tumor growth as described in Example 12.

[1] = test system: liver metastases of M5076 reticulosarcoma; assay: Treatment of established liver metastases of mouse M5076 reticulosarcoma; assay type: in vivo, mouse (C57BL/6); details: for No. Liver Metastases, mean ± SD: day 30, 7.5 mg/kg days 8, 12, 16, 10^5 cells iv, 7.5 mg/kg
Experimental: Animals were treated on days 8, 12, and 16 with
Treated animals were sacrificed on day 30,
Animals were treated on days 4, 8, and 12 with
Treated animals were sacrificed on day 45,

[2] = test system: liver metastases of M5076 reticulosarcoma; assay: Prophylaxis of liver metastases of mouse M5076 reticulosarcoma; assay type: in vivo, mouse (C57BL/6); details: day 21, 10 mg/kg day -1, 10^4 cells iv
Source text: NeodecanoatoRacemic-DACH. Animals were inoculated on day 0 with 10^4
M5076 cells intravenously.
Treated animals were sacrificed on day 21, the livers dissected,
placed in Bouin's fixative, and the number of tumor colonies counted.

[3] = MLV, 48 hours in 0.9% NaCl solution; cited from earlier work

N.N.[Cl][Pt][Cl] [CDDP, Cis-platinum, reference compound]
CDDP ID50 (L1210 cells): 0.1 micro g/ml
% T/C (L1210 mouse leukemia; 7.5 mg/kg × 3 ip, days 1, 5 and 9): 253%
% T/C (L1210 mouse leukemia; 10 mg/kg ip day 1, Exp. 1): 167%
% T/C (L1210 mouse leukemia; 10 mg/kg ip day 1, Exp. 3): 189%
Number of Survivors on Day 30 (L1210 mouse leukemia; 10 mg/kg ip day 1, Exp. 3): 1/6
% T/C (L1210 mouse leukemia; 10 mg/kg ip day 1, dissolved in saline (Table 8)): 175%
% T/C, mean (L1210 mouse leukemia; 10 mg/kg, single ip dose, means of three experiments): 178%
Long-term survivors (L1210 mouse leukemia; single ip dose, more than 30 days): one or two mice of six
No. Liver Metastases, mean ± SD ([1]; listed as Cis-platinum): 114 ± 38
No. Liver Metastases, mean ± SD ([1]; listed as cis-platinum): 114 ±38
animals with 175 or more liver metastases ([1]; day 45, 7.5 mg/kg days 4, 8, 12): 4/6
animals that died before day 45 ([1]; groups of 6, days 4, 8, and 12): Two
No. Liver Metastases, mean ± SD ([2]; listed as Cis-platinum): 256 ± 54
No. Liver Metastases, mean ± SD ([2]; listed as cis-platinum): 256 ±54
stability [3]: 75%
